One experiment concerns the target MET (Homo sapiens, UniProt P08581). The experiment in a line: Evaluation of inhibitory activity to MET. In kind it is biochemical. An excerpt: (§1) Experimental Example 1. Evaluation of Inhibitory Activity to RON and MET
A further experiment concerns the target RON (Homo sapiens, UniProt Q04912). The experiment in a line: Evaluation of inhibitory activity to RON. It is filed as biochemical.
Source text: as §1

One may read the IC50 as the concentration that inhibits the measured activity by half. Read a low IC50 as higher potency.

Sequence of RON (Q04912 25-1400): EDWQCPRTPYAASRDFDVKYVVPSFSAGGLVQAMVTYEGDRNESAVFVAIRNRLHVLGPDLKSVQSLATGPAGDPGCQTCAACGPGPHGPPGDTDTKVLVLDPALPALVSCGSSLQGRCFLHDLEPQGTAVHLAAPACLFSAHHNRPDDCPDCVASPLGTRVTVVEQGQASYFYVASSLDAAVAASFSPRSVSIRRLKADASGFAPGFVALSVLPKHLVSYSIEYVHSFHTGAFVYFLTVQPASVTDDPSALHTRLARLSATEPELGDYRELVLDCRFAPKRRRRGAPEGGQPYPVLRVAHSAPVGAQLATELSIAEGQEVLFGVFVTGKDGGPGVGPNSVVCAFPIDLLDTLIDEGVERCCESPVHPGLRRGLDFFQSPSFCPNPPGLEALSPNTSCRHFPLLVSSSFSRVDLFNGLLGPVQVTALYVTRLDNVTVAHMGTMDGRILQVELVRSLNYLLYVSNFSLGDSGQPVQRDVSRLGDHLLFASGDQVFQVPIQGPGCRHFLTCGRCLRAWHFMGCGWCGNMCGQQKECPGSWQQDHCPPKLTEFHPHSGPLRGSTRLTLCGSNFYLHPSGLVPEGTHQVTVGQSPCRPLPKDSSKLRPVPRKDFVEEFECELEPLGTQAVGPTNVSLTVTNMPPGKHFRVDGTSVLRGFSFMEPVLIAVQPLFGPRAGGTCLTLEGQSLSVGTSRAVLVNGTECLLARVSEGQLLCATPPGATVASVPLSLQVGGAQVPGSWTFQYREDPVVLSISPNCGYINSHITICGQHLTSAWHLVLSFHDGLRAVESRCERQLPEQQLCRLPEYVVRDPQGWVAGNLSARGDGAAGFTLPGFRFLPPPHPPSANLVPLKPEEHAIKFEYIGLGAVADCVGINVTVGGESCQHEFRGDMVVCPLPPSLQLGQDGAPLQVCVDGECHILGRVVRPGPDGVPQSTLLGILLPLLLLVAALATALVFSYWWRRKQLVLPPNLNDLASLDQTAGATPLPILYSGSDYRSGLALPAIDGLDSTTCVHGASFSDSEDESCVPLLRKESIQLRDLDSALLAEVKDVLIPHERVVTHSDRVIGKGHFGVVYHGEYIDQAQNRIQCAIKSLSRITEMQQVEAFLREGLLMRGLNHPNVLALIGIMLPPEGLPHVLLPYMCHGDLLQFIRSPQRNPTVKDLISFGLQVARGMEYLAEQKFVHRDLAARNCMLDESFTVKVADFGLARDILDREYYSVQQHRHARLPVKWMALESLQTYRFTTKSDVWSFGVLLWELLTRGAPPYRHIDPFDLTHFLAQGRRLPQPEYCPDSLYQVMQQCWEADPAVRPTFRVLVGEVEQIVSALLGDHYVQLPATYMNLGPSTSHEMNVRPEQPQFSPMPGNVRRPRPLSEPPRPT
Sequence of MET (P08581 25-1390): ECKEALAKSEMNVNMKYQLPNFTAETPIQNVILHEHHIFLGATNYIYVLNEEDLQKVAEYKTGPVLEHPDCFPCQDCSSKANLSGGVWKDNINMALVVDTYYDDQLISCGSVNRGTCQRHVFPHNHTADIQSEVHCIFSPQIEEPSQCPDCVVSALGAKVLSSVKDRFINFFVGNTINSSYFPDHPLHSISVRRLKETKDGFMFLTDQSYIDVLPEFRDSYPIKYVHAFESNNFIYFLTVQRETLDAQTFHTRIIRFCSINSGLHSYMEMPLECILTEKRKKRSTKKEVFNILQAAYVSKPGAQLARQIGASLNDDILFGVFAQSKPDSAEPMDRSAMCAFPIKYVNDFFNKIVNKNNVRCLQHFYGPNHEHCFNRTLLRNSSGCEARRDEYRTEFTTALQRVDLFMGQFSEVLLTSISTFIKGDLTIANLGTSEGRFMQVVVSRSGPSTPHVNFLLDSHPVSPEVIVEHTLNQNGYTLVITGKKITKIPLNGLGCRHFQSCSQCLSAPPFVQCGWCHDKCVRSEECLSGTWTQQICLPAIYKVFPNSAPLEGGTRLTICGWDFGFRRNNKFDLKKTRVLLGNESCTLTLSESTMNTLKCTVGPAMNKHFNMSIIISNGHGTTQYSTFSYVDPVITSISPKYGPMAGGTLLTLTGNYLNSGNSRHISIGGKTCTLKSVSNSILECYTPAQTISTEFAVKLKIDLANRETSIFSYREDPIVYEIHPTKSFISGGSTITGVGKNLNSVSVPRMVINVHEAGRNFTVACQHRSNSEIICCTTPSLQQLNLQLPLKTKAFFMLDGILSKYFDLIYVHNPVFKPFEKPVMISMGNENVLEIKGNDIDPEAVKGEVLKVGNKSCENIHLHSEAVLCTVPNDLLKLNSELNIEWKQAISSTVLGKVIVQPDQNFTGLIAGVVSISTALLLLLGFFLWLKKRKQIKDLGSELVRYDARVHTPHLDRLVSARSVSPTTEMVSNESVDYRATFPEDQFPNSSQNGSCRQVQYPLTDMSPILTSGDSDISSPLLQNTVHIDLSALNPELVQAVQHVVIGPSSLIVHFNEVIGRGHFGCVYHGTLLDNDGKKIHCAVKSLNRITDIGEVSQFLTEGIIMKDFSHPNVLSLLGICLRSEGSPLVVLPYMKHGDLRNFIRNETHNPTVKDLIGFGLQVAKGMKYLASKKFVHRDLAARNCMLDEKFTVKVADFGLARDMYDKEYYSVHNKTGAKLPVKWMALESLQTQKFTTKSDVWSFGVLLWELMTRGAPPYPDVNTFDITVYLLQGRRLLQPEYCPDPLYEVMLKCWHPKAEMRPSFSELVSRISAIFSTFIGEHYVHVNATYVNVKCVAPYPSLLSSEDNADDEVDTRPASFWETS

Consider `CCOc1ccn(-c2ccc(F)cc2)c(=O)c1C(=O)Nc1ccc(Nc2ccc(O)c(-c3ccnc(N)n3)c2)c(F)c1` [Example 28, N-(4-((3-(2-aminopyrimidin-4-yl)-4-hydroxyphenyl)amino)-3-fluorophenyl)-4-ethoxy-1-(4-fluorophenyl)-2-oxo-1,2-dihydropyridin-3-carboxamide], for which the concentration for half-maximal inhibition (IC50) on MET was determined as 180 nM; against RON, 1170 nM.
With `Cc1ccc(C(=O)Nc2ccc(Nc3ccc(O)c(-c4ccnc(N)n4)c3)c(F)c2)c(=O)n1-c1ccc(F)cc1` [Example 30, N-(4-((3-(2-aminopyrimidin-4-yl)-4-hydroxyphenyl)amino)-3-fluorophenyl)-1-(4-fluorophenyl)-6-methyl-2-oxo-1,2-dihydropyridin-3-carboxamide], the IC50 at MET is 49 nM; against RON, 248 nM.
Consider `CCOc1ccn(-c2ccc(F)cc2)c(=O)c1C(=O)Nc1ccc(Nc2ccc(O)c(-c3ccnc(N)n3)c2)cc1F` [Example 34, N-(4-((3-(2-aminopyrimidin-4-yl)-4-hydroxyphenyl)amino)-2-fluorophenyl)-4-ethoxy-1-(4-fluorophenyl)-2-oxo-1,2-dihydropyridin-3-carboxamide], for which the half-inhibitory concentration (IC50) is 552 nM against MET and 2280 nM on RON.
The matching figures for `CCOc1ccn(-c2ccc(F)cc2)c(=O)c1C(=O)Nc1ccc(Oc2ccc(O)c(-c3ccnc(N)n3)c2)c(F)c1` [Example 39, N-(4-(3-(2-aminopyrimidin-4-yl)-4-hydroxyphenoxy)-3-fluorophenyl)-4-ethoxy-1-(4-fluorophenyl)-2-oxo-1,2-dihydropyridin-3-carboxamide]: 27 nM and 86 nM.
Take `Nc1nccc(-c2cc(Oc3ccc(NC(=O)C4(C(=O)Nc5ccc(F)cc5)CC4)cc3F)ccc2O)n1` [Example 41, N-(4-(3-(2-aminopyrimidin-4-yl)-4-hydroxyphenoxy)-3-fluorophenyl)-N-(4-fluorophenyl)cyclopropan-1,1-dicarboxamide]: the IC50 against MET turned out to be 71 nM; against RON, 362 nM.
Consider `COc1ccn(-c2ccc(F)cc2)c(=O)c1C(=O)Nc1ccc(Oc2ccc(O)c(-c3ccnc(N)n3)c2)c(F)c1` [Example 42, N-(4-(3-(2-aminopyrimidin-4-yl)-4-hydroxyphenoxy)-3-fluorophenyl)-1-(4-fluorophenyl)-4-methoxy-2-oxo-1,2-dihydropyridin-3-carboxamide], for which the IC50 at MET stood at 53 nM; against RON, 355 nM.
As to `Cc1c(C(=O)Nc2ccc(Oc3ccc(O)c(-c4ccnc(N)n4)c3)c(F)c2)c(=O)n(-c2ccccc2)n1C` [Example 43, N-(4-(3-(2-aminopyrimidin-4-yl)-4-hydroxyphenoxy)-3-fluorophenyl)-1,5-dimethyl-3-oxo-2-phenyl-2,3-dihydro-1H-pyrazol-4-carboxamide], the IC50 is 48 nM against MET and 279 nM against RON.
For the compound `Nc1nccc(-c2cc(Oc3ccc(NC(=O)c4cc(Br)cn(-c5ccc(F)cc5)c4=O)cc3F)ccc2O)n1` [Example 44, N-(4-(3-(2-aminopyrimidin-4-yl)-4-hydroxyphenoxy)-3-fluorophenyl)-5-bromo-1-(4-fluorophenyl)-2-oxo-1,2-dihydropyridin-3-carboxamide], the IC50 was 46 nM against MET and 137 nM against RON.
Regarding `Nc1nccc(-c2cc(Oc3ccc(NC(=O)c4cccn(-c5ccc(F)cc5)c4=O)cc3F)ccc2O)n1` [Example 46, N-(4-(3-(2-aminopyrimidin-4-yl)-4-hydroxyphenoxy)-3-fluorophenyl)-1-(4-fluorophenyl)-2-oxo-1,2-dihydropyridin-3-carboxamide], the values for the IC50 against MET and against RON were 54 nM and 241 nM, respectively.
As for `Cn1cc(-c2cc(C(=O)Nc3ccc(Oc4ccc(O)c(-c5ccnc(N)n5)c4)c(F)c3)c(=O)n(-c3ccc(F)cc3)c2)cn1` [Example 47, N-(4-(3-(2-aminopyrimidin-4-yl)-4-hydroxyphenoxy)-3-fluorophenyl)-1-(4-fluorophenyl)-5-(1-methyl-1H-pyrazol-4-yl)-2-oxo-1,2-dihydropyridin-3-carboxamide], the IC50 against MET turned out to be 179 nM; at RON, 882 nM.
The matching figures for `Nc1nccc(-c2cc(Oc3ccc(NC(=O)c4cc(C5CC5)cn(-c5ccc(F)cc5)c4=O)cc3F)ccc2O)n1` [Example 48, N-(4-(3-(2-aminopyrimidin-4-yl)-4-hydroxyphenoxy)-3-fluorophenyl)-5-cyclopropyl-1-(4-fluorophenyl)-2-oxo-1,2-dihydropyridin-3-carboxamide]: 64 nM and 23 nM.
Consider `Nc1nccc(-c2cc(Oc3ccc(NC(=O)c4ccc(C(F)(F)F)n(-c5ccc(F)cc5)c4=O)cc3F)ccc2O)n1` [Example 49, N-(4-(3-(2-aminopyrimidin-4-yl)-4-hydroxyphenoxy)-3-fluorophenyl)-1-(4-fluorophenyl)-2-oxo-6-(trifluoromethyl)-1,2-dihydropyridin-3-carboxamide], for which the 50% inhibitory concentration (IC50) against MET is 67 nM; against RON, 163 nM.
With `Nc1nccc(-c2cc(Oc3ccc(NC(=O)c4ccc(CO)n(-c5ccc(F)cc5)c4=O)cc3F)ccc2O)n1` [Example 50, N-(4-(3-(2-aminopyrimidin-4-yl)-4-hydroxyphenoxy)-3-fluorophenyl)-1-(4-fluorophenyl)-6-(hydroxymethyl)-2-oxo-1,2-dihydropyridin-3-carboxamide], the IC50 is 12 nM against MET and 133 nM at RON.
`Cc1c(C(=O)Nc2ccc(Oc3ccc(O)c(-c4ccnc(N)n4)c3)c(F)c2)c(=O)n(-c2ccccc2)n1CC(C)(C)O` [Example 52, N-(4-(3-(2-aminopyrimidin-4-yl)-4-hydroxyphenoxy)-3-fluorophenyl)-1-(2-hydroxy-2-methylpropyl)-5-methyl-3-oxo-2-phenyl-2,3-dihydro-1H-pyrazol-4-carboxamide]: the IC50 on MET turned out to be 115 nM; on RON, 876 nM.
As for `CCOc1ccn(-c2ccc(F)cc2)c(=O)c1C(=O)Nc1ccc(Oc2ccc(O)c(-c3ccncn3)c2)c(F)c1` [Example 54, 4-Ethoxy-N-(3-fluoro-4-(4-hydroxy-3-(pyrimidin-4-yl)phenoxy)phenyl)-1-(4-fluorophenyl)-2-oxo-1,2-dihydropyridin-3-carboxamide], the IC50 against MET came to 67 nM; on RON, 351 nM.
Consider `O=C(Nc1ccc(F)cc1)C1(C(=O)Nc2ccc(Oc3ccc(O)c(-c4ccncn4)c3)c(F)c2)CC1` [Example 56, N-(3-fluoro-4-(4-hydroxy-3-(pyrimidin-4-yl)phenoxy)phenyl)-N-(4-fluorophenyl)cyclopropan-1,1-dicarboxamide], for which the IC50 against MET was determined as 281 nM; against RON, 3350 nM.
The matching figures for `CCOc1ccn(-c2ccc(F)cc2)c(=O)c1C(=O)Nc1ccc(Oc2ccc(O)c(-c3cc[nH]n3)c2)c(F)c1` [Example 57, 4-Ethoxy-N-(3-fluoro-4-(4-hydroxy-3-(1H-pyrazol-3-yl)phenoxy)phenyl)-1-(4-fluorophenyl)-2-oxo-1,2-dihydropyridin-3-carboxamide]: 160 nM and 4480 nM.
For the compound `Cc1ccc(C(=O)Nc2ccc(Oc3ccc(O)c(-c4cc[nH]n4)c3)c(F)c2)c(=O)n1-c1ccc(F)cc1` [Example 58, N-(3-Fluoro-4-(4-hydroxy-3-(1H-pyrazol-3-yl)phenoxy)phenyl)-1-(4-fluorophenyl)-6-methyl-2-oxo-1,2-dihydropyridin-3-carboxamide], the concentration for half-maximal inhibition (IC50) worked out at 99 nM against MET and 1450 nM against RON.
